Assay results reported in PMC7019360, “Antihypertensive Effects of Virgin Olive Oil (Unfiltered) Low Molecular Weight Peptides with ACE Inhibitory Activity in Spontaneously Hypertensive Rats” (Nutrients, 2020).
Ends that are not written are not given here. Peptide text beside a SMILES is read from it.

System: not listed separately
Assay: Water solubility of synthetic peptide
Type: physicochemical
Conditions: reason why the ACE activity was not determined

Water solubility | Compound
not water soluble | LQFCCY [SEQ No.17, synthetic peptide LQFCCY from olive oil extract]

System: ACE
Assay: not given
Conditions: bovine casein-derived peptide; cited from earlier work
Excerpt: The process of development of high blood pressure in humans presents analogies with the development of hypertension in SHR. For this reason, the SHR model has been extensively used in the evaluation of food peptides with antihypertensive potential. […] It contains four dipeptides (DG, GG, GY, DG) with previously reported activity, h ...

Compound | In vitro ACE inhibitory activity
KVLPVPQ | low in vitro ACE inhibitory activity

Molecular target: angiotensin-converting enzyme (ACE) (Homo sapiens, UniProt P12821)
Assay: ACE inhibitory activity in vitro (IC50)
Type: biochemical
Conditions: chemically synthesised peptides, method of ref 35 with modifications of ref 28, mean ± SD, SD, read-out: ACEi Activity IC50 (µm) ± SD
Excerpt: The ACE inhibitory activity of the samples was studied using the methodology specified in [35], with some modifications. The ACE inhibitory activity is shown as IC50, or the concentration needed to inhibit the activity of the enzyme by 50%.

Sequence of angiotensin-converting enzyme (ACE) (P12821 30-1306, species assumed): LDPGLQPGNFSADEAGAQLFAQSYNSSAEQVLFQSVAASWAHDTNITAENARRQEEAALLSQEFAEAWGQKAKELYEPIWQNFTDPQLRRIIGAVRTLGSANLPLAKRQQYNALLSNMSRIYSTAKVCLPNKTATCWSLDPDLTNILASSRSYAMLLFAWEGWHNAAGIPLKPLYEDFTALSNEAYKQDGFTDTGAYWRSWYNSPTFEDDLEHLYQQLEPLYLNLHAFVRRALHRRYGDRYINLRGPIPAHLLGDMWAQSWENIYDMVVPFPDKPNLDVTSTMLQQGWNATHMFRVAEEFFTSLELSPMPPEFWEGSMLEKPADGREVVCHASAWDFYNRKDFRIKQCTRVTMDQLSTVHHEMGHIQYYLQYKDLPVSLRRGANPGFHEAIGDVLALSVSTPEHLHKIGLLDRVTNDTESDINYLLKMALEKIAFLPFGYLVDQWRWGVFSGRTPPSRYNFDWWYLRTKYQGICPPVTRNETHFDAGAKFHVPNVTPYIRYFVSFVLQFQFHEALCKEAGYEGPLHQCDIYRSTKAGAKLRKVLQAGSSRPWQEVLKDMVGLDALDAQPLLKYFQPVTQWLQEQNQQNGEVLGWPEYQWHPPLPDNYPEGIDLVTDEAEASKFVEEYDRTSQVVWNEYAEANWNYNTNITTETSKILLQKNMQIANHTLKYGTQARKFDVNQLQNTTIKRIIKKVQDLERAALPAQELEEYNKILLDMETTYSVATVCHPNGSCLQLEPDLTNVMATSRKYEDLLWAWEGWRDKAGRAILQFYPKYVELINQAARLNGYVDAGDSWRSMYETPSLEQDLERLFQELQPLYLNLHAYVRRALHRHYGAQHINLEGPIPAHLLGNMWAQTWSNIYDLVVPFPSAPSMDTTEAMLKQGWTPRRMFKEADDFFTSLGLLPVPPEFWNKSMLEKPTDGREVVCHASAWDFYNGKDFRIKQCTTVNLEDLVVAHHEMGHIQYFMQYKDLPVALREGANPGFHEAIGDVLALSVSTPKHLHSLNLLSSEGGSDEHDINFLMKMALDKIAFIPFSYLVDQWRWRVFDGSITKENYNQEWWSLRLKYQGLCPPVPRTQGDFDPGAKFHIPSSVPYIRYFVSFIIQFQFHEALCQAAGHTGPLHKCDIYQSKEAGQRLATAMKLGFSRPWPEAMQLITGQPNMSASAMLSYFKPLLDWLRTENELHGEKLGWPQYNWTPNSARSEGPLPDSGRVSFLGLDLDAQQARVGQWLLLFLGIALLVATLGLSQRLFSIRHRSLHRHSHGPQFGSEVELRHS

IC50 | Compound
3.2 ± 0.23 µM | YMHCYF [SEQ No.7]
6.88 ± 0.3 µM | C[C@H](NC(=O)[C@H](C)NC(=O)[C@@H](N)Cc1c[nH]c2ccccc12)C(=O)NCC(=O)N[C@@H](Cc1ccc(O)cc1)C(=O)N[C@@H](CS)C(=O)N[C@@H](CS)C(=O)O [SEQ No.8] (H-WAAGYCC-OH)
1.85 ± 0.16 µM | CC(C)C[C@H](N)C(=O)N[C@@H](CCC(=O)O)C(=O)N[C@@H](CCC(=O)O)C(=O)N[C@@H](Cc1ccccc1)C(=O)N[C@@H](CS)C(=O)N[C@@H](CS)C(=O)O [SEQ No.2] (H-LEEFCC-OH)
135 ± 13.5 µM | LALAPTN [SEQ No.14]
230 ± 36.5 µM | RPVPPVF [SEQ No.15]

The remaining lines, values behind:

Compound | IC50
LEFTSSY [SEQ No.12] | 107 ± 14.7 µM
EECHAH [SEQ No.9] | 11.8 ± 1.99 µM
C[C@@H](O)[C@H](NC(=O)[C@H](CC(N)=O)NC(=O)[C@H](CS)NC(=O)CNC(=O)[C@H](CS)NC(=O)[C@@H](N)Cc1c[nH]cn1)C(=O)N[C@@H](Cc1c[nH]cn1)C(=O)O [SEQ No.3] (H-HCGCNTH-OH) | 2.58 ± 0.26 µM
CC(C)[C@H](NC(=O)[C@H](C)NC(=O)[C@H](CC(N)=O)NC(=O)CNC(=O)[C@H](CS)NC(=O)[C@@H](N)CS)C(=O)N1CCC[C@H]1C(=O)N[C@@H](CCC(N)=O)C(=O)O [SEQ No.4] (H-CCGNAVPQ-OH) | 39.6 ± 2.09 µM
CC(C)C[C@H](NC(=O)[C@@H]1CCCN1C(=O)[C@H](CC(=O)O)NC(=O)[C@H](CS)NC(=O)CNC(=O)[C@H](CS)NC(=O)CNC(=O)[C@@H](N)Cc1ccc(O)cc1)C(=O)O [SEQ No.6] (H-YGCGCDPL-OH) | 1.64 ± 0.02 µM
LALSAPVP [SEQ No.16] | 305 ± 10.9 µM
N=C(N)NCCC[C@H](N)C(=O)N[C@@H](CC(=O)O)C(=O)NCC(=O)NCC(=O)N[C@@H](Cc1ccc(O)cc1)C(=O)N[C@@H](CS)C(=O)N[C@@H](CS)C(=O)O [SEQ No.1] (H-RDGGYCC-OH) | 0.84 ± 0.02 µM
CC(C)C[C@H](NC(=O)[C@H](CC(=O)O)NC(=O)[C@H](CS)NC(=O)CNC(=O)[C@H](CS)NC(=O)CNC(=O)[C@@H](N)Cc1ccc(O)cc1)C(=O)N1CCC[C@H]1C(=O)O [SEQ No.5] (H-YGCGCDLP-OH) | 3.51 ± 0.21 µM

Same assay, conditions: chemically synthesised peptides, method of ref 35 with modifications of ref 28, mean ± SD, read-out: ACEi Activity IC50 (µm) ± SD

IC50 | Compound
> 405 µM | EAPGGYDD [SEQ No.19]
> 460 µM | YEAYPS [SEQ No.21]
> 390 µM | KRRPPTT [SEQ No.18]
> 480 µM | MSMAPY [SEQ No.23]

System: SHR
Assay: not given
Conditions: bovine casein-derived peptide; cited from earlier work
Excerpt: The study of ACE inhibitor peptides in foods is a very active area of research and there are a few available data bases with information on peptide sequences and biological activity. We used the BIOPEP data base to assist with our selection of peptides because it uses previous published research providing information about the number of ACE inhibitor motifs of a peptide sequence and calculates the peptide's theoretical activity. Apart from the ACE inhibitory activity, the data base detected additional potential activities of our selected peptides, including antioxidant (Nos. 9 and 11), anti-th ... || The process of development of high blood pressure in humans presents analogies with the development of hypertension in SHR. For this reason, the SHR model has been extensively used in the evaluation of food peptides with antihypertensive potential. […] It contains four dipeptides (DG, GG, GY, DG) with previously reported activity, h ...

Compound | SBP reducing effect in SHR
KVLPVPQ | high SBP reducing effect

System: spontaneously hypertensive rats (SHR)
Assay: Antihypertensive activity in SHR, tail-cuff SBP after acute oral administration
Type: in vivo, rat
Conditions: oral Captopril 50 mg/kg BW, at 24 h
Excerpt: The antihypertensive effect of synthetic peptides No. 1 (RDGGYCC), No. 2 (LEEFCC), No. 3 (HCGCNTH) and No. 4 (CCGNAVPQ) was studied on the systolic blood pressure (SBP) and diastolic blood pressure (DBP) using the spontaneously hypertensive rat (SHR) animal model of hypertension. The tail-cuff method was used to measure SBP and DBP [36] as described in [28]. We selected a dose of synthetic peptides in the range described in previous studies of antihypertensive effects of peptides with ACE inhibitory activity. SBP and DBP data was always collected by the same technician. A period of training of two weeks was set to allow the animals to be habituated to this methodology. Forty-eight male SHR (age 19–21 weeks) were used. The average BW of the animals was 322.0 ± 6.0 g. The synthetic peptides were dissolved in water and were administered orally to the animals (about 1 mL per animal). The ACE inhibitor drug Captopril (Sigma, St. Louis, MO, USA) was used as a positive control and water was used as a negative control. The SHR were distributed randomly into 6 study groups (n = 8 per group) and received an oral dose of one of the four synthetic peptides (25 mg/kg of BW), or a dose of Captopril (50 mg/kg of BW) or water (1 mL). SBP and DBP were measured in the rats at baseline (time 0) and at 2, 4, 8 and 24 h post-administration of the peptides or controls. […]

Compound | Time course of the antihypertensive effect (SBP)
C[C@H](CS)C(=O)N1CCC[C@H]1C(=O)O [Captopril] | returned to basal levels
